Measured values taken from PMC8003975 (Cancers, 2021).
Values after ≈ are worked out from the molar mass of the structure shown.

Tests used:
[1] = test system: insulin secretion; conditions: cited from earlier work
[2] = test system: human normal oral keratinocytes (NOK); experiment: Cytotoxicity assay (Cell Counting Kit-8); type: cell-based; conditions: 48 h
Excerpt: (§1) Normal oral keratinocytes (NOK) (kindly gifted by Dr. Karl Mugner, Tuffs University, Boston, MA, USA) were maintained in Keratinocyte SFM medium supplemented with EGF and bovine pituitary extract (GIBCO, Life Technologies, Berkeley, MO, USA) and 1% penicillin/ streptomycin. HNC cell line Cal27 was purchased from the ATCC. JHU029 (JHU-29) and JHU022 (JHU-22) cell lines were procured from the Johns Hopkins University (Baltimore, MD, USA). The Cal27 and JHU022 cells were maintained in Dulbecco’s Modified Eagle Medium (DMEM), and JHU029 cells were in RPMI1640 (Sigma, St. Louis, MO, USA) media supplemented with 10% FBS and 1% penicillin/ streptomycin (Sigma-Aldrich, St. Louis, MO, USA) in a humidified CO2 incubator. The cell lines are routinely tested in our laboratory to rule out mycoplasma contamination using a commercial MycoAlert™ Mycoplasma Detection kit (Lonza, Morrisville, NC, USA). Cal27 cells are tongue origin and JHU022 and JHU029 cells are from laryngx origin.
(§2) Cal27, JHU029, JHU022 and NOK were seeded in 96 well-plate (5000 cells/well) and cells were treated with different concentration of M-I for 48 h. There were untreated control and DMSO treated vehicle control group for comparison. Cytotoxicity assay was performed using Cell Counting Kit-8 (Dojindo Molecular Technology, Rockville, MD, USA) according to manufacturer instruction.

[3] = test system: Cal27 cells; experiment: Cytotoxicity assay (Cell Counting Kit-8); type: cell-based; conditions: Homo sapiens, CAL-27, 48 h
Excerpt: as §1, §2

[4] = test system: JHU029 cells; experiment: Cytotoxicity assay (Cell Counting Kit-8); type: cell-based; conditions: Homo sapiens, 48 h
Excerpt: as §1, §2

[5] = test system: JHU022 cells; experiment: Cytotoxicity assay (Cell Counting Kit-8); type: cell-based; conditions: Homo sapiens, 48 h
Excerpt: as §1, §2

[6] = test system: cyclin D1; experiment: Western blot of treated HNC cells; type: cell-based, human; conditions: Cal27 and JHU029 cells, 48 hr; 2% BME or 10 µg/mL M-I
Protocol: (§3) Figure 3 Momordicine-I inhibits downstream of c-Met signaling in HNC cells. Representative Western blot image for c-Myc, survivin and cyclin D1 expression in Cal27 and JHU029 cells with treatment of BME or M-I. The same membrane used in panel A was reprobed. Actin was used as internal control. Quantitative representation of Western blot band intensities (right panel). Small bar indicates standard error (*** p < 0.001).
(§4) Bitter melon extract (BME) was prepared from the Chinese variety of young bitter melons (raw and green) as described previously. Briefly, BME was prepared by aqueous extraction from whole fruit without seeds using a household juicer at room temperature with subsequent centrifugation at 15000× g at 4 °C for 30 min. BME was stored at −80 °C for further analysis. Cal27 and JHU029 cells were treated with 2% BME and JHU022 cells were treated with 3% BME as described previously. The momordicine-I (>98% pure) was purchased from Chemfaces (Cat. No.: CFN92076; Hubei, China). The powder was dissolved in DMSO and added to the cells at different concentrations. Based on cytotoxicity data, Cal27 and JHU029 cells were treated with 10 µg/mL and JHU022 cells were treated with 20 µg/mL dose of M-I and incubated for 48 hr for further experiments. All the experiments were done at least in triplicate. […]

[7] = test system: c-Myc; experiment: Western blot of treated HNC cells; type: cell-based, human; conditions: Cal27 and JHU029 cells, 48 hr; 2% BME or 10 µg/mL M-I
Protocol: as §3, §4

[8] = test system: JHU029 xenograft; experiment: Tumorigenicity assay, HNC xenograft model; type: in vivo, BALB/c athymic nude mice
Protocol: Figure 6 Therapeutic effect of momordicine-I in JHU029 xenograft model. JHU029 cells (1.5 × 10^6) cells were injected subcutaneously into the flank of nude mice. After the formation of a palpable tumor, mice were randomly divided into three groups (n = 5): Control (without any treatment), BME group (30% BME through drinking water) and M-I group (30 mg/kg IP, once in a day and every day). (A) Body weight was measured in control and treated mice. (B) Representative images of tumors in control and treatment groups. (C) Tumors were measured using a slide caliper and tumor volumes were calculated. Arrow indicates starting point BME/M-I treatment. (D) Control or treated tumor lysates were subjected to Western blot analysis for c-Met and c-Myc expression using specific antibodies and representative bands are shown. The blot was reprobed with an antibody to Actin for normalization. […] Small bar indicates standard error (*, p < 0.05; *** p < 0.001).
JHU029 or Cal27 cells (1.5 × 10^6) containing 40% Matrigel were injected subcutaneously into the flank of BALB/c athymic nude mice (7–8 weeks old). When the palpable tumor was developed (>60 mm^3), mice were divided into three groups randomly, 5 mice in each group. The control group was without any treatment. The BME group received 30% (v/v) BME through drinking water. M-I group received 30 mg/kg dose of M-I once in day, every day. Body weight was monitored, and tumor size was measured using a slide caliper and volume was calculated using the formula ½ L × W^2. After animal sacrifice tumors were dissected out and snap frozen in liquid nitrogen for further analysis. All the animal experiments were carried out in accordance NIH guidelines, following a protocol approved (1017) by the Institutional Animal Care and Use Committee (IACUC) of Saint Louis University.

[9] = JHU029 xenograft tumor lysates, Western blot, vs untreated control tumors

Compound: CC(C)=CC(O)CC(C)[C@H]1CC[C@@]2(C)[C@@H]3[C@@H](O)C=C4[C@@H](CC[C@H](O)C4(C)C)[C@]3(C=O)CC[C@]12C (stereo partly drawn) [M-I, (3S, 7S, 8S, 9R, 10R, 13R, 14S, 17R) 3,7-dihydroxy-17-(4-hydroxy-6-methylhept-5-en-2-yl)-4,4,13,14-tetramethyl-2,3,7,8,10,11, 12,15,16,17-decahydro-1H-cyclopenta[a]phenanthrene-9-carbaldehyde]
- insulin secretion in vitro [1]: stimulate insulin secretion
- cytotoxic effect on normal oral keratinocytes [2]: minimum effect
- IC50 [3]: 7 µg/mL (≈ 14.8 µM)
- IC50 [4]: 6.5 µg/mL (≈ 13.8 µM)
- IC50 [5]: 17 µg/mL (≈ 36 µM)
- cyclin D1 expression [6]: significant inhibition
- c-Myc expression [7]: significant inhibition
- c-Met expression in tumors [8, 9]: significant reduction
- c-Myc expression in tumors [8, 9]: significant reduction
- tumor growth reduction, M-I compared with BME ([8]; JHU029 xenograft, nude mice, M-I 30 mg/kg IP once a day): better effect
- tumor volume ([8]; JHU029 xenograft, nude mice, M-I 30 mg/kg IP once a day or 30% BME in drinking water, to day 32, vs untreated control): significantly reduced
- sudden drop in body weight ([8]; JHU029 xenograft, three out of five mice on Day 20, weight gained back, M-I 30 mg/kg IP once a day): ~ 10%
